Experimental data taken from patent US11648248B1 (King Abdulaziz University, priority 2022, dated 2023).
Values after ≈ are worked out from the molar mass of the structure shown. Read-outs that look alike come from different tables or passages of the source.

Assays:
Assay type in all cases: cell-based
C. albicans (ATCC 64124) = assay: MIC broth microdilution, initial screening; conditions: Candida albicans, read-out: minimum inhibitory concentration (MIC) C. albicans (ATCC 64124)
Experimental: (§1) The minimum inhibitory concentrations (MICs) of the tested compounds and control drugs (linezolid, vancomycin, gentamicin (antibiotics) and fluconazole and 5-fluorocytosine (5-FC) (antifungal drugs)) were determined using the broth microdilution method, according to guidelines outlined by the Clinical and Laboratory Standards Institute (CLSI, Clinical and Laboratory Standards Institute, Methods for antimicrobial susceptibility testing of anaerobic bacteria; approved standard, M11-A8. 8th ed., 2012; CLSI, Clinical and Laboratory Standards Institute. M27-A3 Reference Method for Broth Dilution Antifungal Susceptibility Testing of Yeasts; Approved Standard—Third Edition, Wayne, Pa., 2008) against clinically-relevant bacterial (methicillin-resistant Staphylococcus aureus (MRSA), Escherichia coli, and C. difficile strains) and fungal (Candida albicans) strains. S. aureus and E. coli were grown aerobically overnight on tryptone soy agar plates at 37° C. C. difficile was grown anaerobically on brain heart infusion supplemented agar at 37° C. for 48 hours. C. albicans was grown aerobically overnight on yeast peptone dextrose (YPD) agar plate at 35° C. Afterwards, a bacterial solution equivalent to 0.5 McFarland standard was prepared and diluted in cation-adjusted Mueller-Hinton broth (CAMHB) (for S. aureus and E. coli) to achieve a bacterial concentration of about 5×10^5 CFU/mL. C. difficile was diluted in brain heart infusion supplemented broth, supplemented with yeast extract, hemin and vitamin K to achieve a bacterial concentration of about 5×10^5 CFU/mL. C. albicans was diluted in Roswell Park Memorial Institute (RPMI 1640) medium with glutamine and without bicarbonate (GIBCO by Life Technologies, Green Island, N.Y., USA) which was buffered to pH 7.0 with 0.165 M of [3-(N-morpholino) propanesulfonic acid] (MOPS) (DOT Scientific Inc., Burton, Mich., USA) to achieve a fungal concentration of about 1.5×10^3 CFU/mL. Compounds and control drugs were added in the first row of the 96-well plates and serially diluted with the corresponding media containing bacteria. Plates were then incubated aerobically at 37° C. for 18-20 hours (for S. aureus and E. coli). C. difficile was incubated anaerobically at 37° C. for 48 hours. C. albicans was incubated aerobically at 37° C. for 24 hours.
(§2) The minimum inhibitory concentrations (MICs) of the tested compounds and control drugs; linezolid, vancomycin, gentamicin (antibiotics) and fluconazole and 5-fluorocytosine (5-FC) (antifungal drugs) were determined using the broth microdilution method, according to guidelines outlined by the Clinical and Laboratory Standards Institute (CLSI)^1, 2, 3 against clinically-relevant bacterial (methicillin-resistant Staphylococcus aureus (MRSA), Escherichia coli and Clostridium difficile strains) and fungal (Candida albicans) strain. S. aureus and E. coli were grown aerobically overnight on tryptone soy agar plates at 37° C. C. difficile was grown anaerobically on brain heart infusion supplemented agar at 37° C. for 48 hours. C. albicans was grown aerobically overnight on yeast peptone dextrose (YPD) agar plate at 35° C. Afterwards, a bacterial solution equivalent to 0.5 McFarland standard was prepared and diluted in cation-adjusted Mueller-Hinton broth (CAMHB) (for S. aureus and E. coli) to achieve a bacterial concentration of about 5×10^5 CFU/mL. C. difficile was diluted in brain heart infusion supplemented broth, supplemented with yeast extract, hemin and vitamin K to achieve a bacterial concentration of about 5×10^5 CFU/mL. C. albicans was diluted in Roswell Park Memorial Institute (RPMI 1640) medium with glutamine and without bicarbonate (GIBCO by Life Technologies, Green Island, N.Y., USA) which was buffered to pH 7.0 with 0.165 M of [3-(N-morpholino) propanesulfonic acid]

[1] = tested on: Clostridium difficile (ATCC-BAA1870); assay: MIC broth microdilution, initial screening; conditions: Clostridioides difficile, ATCCBAA1870, 48 h
Experimental: as §1, §2

[2] = tested on: Escherichia coli BW25113 (wild-type); assay: MIC broth microdilution, initial screening; conditions: Escherichia coli, E. coli BW25113, 18-20 hours, read-out: minimum inhibitory concentration (MIC) E. coli (Wild-type)
Experimental: as §1, §2

[3] = tested on: Escherichia coli JW55031 (TolC mutant); assay: MIC broth microdilution, initial screening; conditions: Escherichia coli, read-out: minimum inhibitory concentration (MIC) E. coli (TolC mutant), E. coli JW55031, 18-20 hours
Experimental: as §1, §2

[4] = tested on: multi-drug resistant staphylococcal strains; assay: MIC against panel of staphylococcal strains; conditions: Staphylococcus; range over the staphylococcal panel; read-out: MIC values, tested staphylococcal strains
Excerpt: Based upon the initial results obtained, the active compounds were further screened against additional clinical isolates of methicillin-sensitive S. aureus (MSSA), methicillin-resistant S. aureus (MRSA), vancomycin-resistant S. aureus (VRSA), Staphylococcus epidermidis, vancomycin-resistant Enterococcus faecium (VRE), vancomycin-resistant Enterococcus faecalis (VRE) and Streptococcus pneumoniae, as presented in Table 2. Additionally, we examined whether the compounds were bacteriostatic (inhibit bacteria from growing) or bactericidal (kill bacteria) by determining the minimum bactericidal concentration (MBC). The MBC was determined by plating 5 μL from each well where no growth was present (in the MIC plates) onto tryptic soya agar plates and incubating plates at 37° C. for 24 hours. The MBC was categorized as the lowest concentration that generated a 99.9% reduction in bacterial colony-forming units (Table 3).
as §2, with “acid] (MOPS) (dot scientific inc., Burton, Mich., USA) to achieve a fungal concentration of about 1.5×10^3 CFU/mL. Compounds and control drugs were added in the first row of the 96-well plates and serially diluted with the corresponding media containing bacteria/fungi. Plates were then, incubated aerobically at 37° C. for 18-20 hours (for S. aureus and E. coli). […]” for “acid]”

[5] = read-out: minimum inhibitory concentration (MIC) C. difficile (ATCC-BAA1870), anaerobic, 48 hours

Row | SMILES | MIC (C. albicans (ATCC 64124); ATCC64124, 24 h) [µg/mL] | MIC [1, 5] [µg/mL] | MIC [2] [µg/mL] | MIC [3] [µg/mL] | MIC [4] [µg/mL] | MIC ([1]; read-out: minimum inhibitory concentration (MIC) C. difficile (ATCC-BAA1870)) [µg/mL] | MIC (C. albicans (ATCC 64124); ATCC64124, RPMI 1640, 24 hours) [µg/mL] | MIC ([1]; anaerobic, 48 hours, read-out: minimum inhibitory concentration (MIC) C. difficile (ATCC-BAA1870)) [µg/mL]
1 | O=C(Nc1ccc(Oc2ccc(=O)[nH]n2)cc1)Nc1ccc(Cl)c(C(F)(F)F)c1 [MY31, 1-(4-chloro-3-(trifluoromethyl)phenyl)-3-(4-((6-oxo-1,6-dihydropyridazin-3-yl)oxy)phenyl)urea] | > 128 | 0.5 to 1 (≈ 1.18 to 2.35 µM) | > 128 | 0.5 (≈ 1.18 µM) | 0.5 to 1 (≈ 1.18 to 2.35 µM) |  |  | 
2 | CN[C@H](CC(C)C)C(=O)N[C@H]1C(=O)N[C@@H](CC(N)=O)C(=O)N[C@H]2C(=O)N[C@H]3C(=O)N[C@H](C(=O)N[C@H](C(=O)O)c4cc(O)cc(O)c4-c4cc3ccc4O)[C@H](O)c3ccc(c(Cl)c3)Oc3cc2cc(c3O[C@@H]2O[C@H](CO)[C@@H](O)[C@H](O)[C@H]2O[C@H]2C[C@](C)(N)[C@H](O)[C@H](C)O2)Oc2ccc(cc2Cl)[C@H]1O [Vancomycin, reference compound] |  |  |  |  |  | 1 (≈ 0.69 µM) |  | 
3 | O=C(Nc1cccc(Nc2ccc(Cl)nn2)c1)Nc1ccc(Cl)c(Cl)c1 [MY14, 1-(3-((6-chloropyridazin-3-yl)amino)phenyl)-3-(3,4-dichlorophenyl)urea] | > 128 |  | > 128 | 2 (≈ 4.89 µM) | 2 to 8 (≈ 4.89 to 19.6 µM) |  |  | 
4 | O=C(Nc1ccc(Oc2ccc(=O)[nH]n2)cc1)Nc1ccc(Cl)c(Cl)c1 [MY24, 1-(3,4-dichlorophenyl)-3-(4-((6-oxo-1,6-dihydropyridazin-3-yl)oxy)phenyl)urea] | > 128 | 0.5 to 1 (≈ 1.28 to 2.56 µM) | > 128 | 1 (≈ 2.56 µM) | 0.5 to 1 (≈ 1.28 to 2.56 µM) |  |  | 
5 | O=C(Nc1ccc(-c2ccc(=O)[nH]n2)cc1)Nc1ccc(Cl)c(Cl)c1 [MY21, 1-(3,4-dichlorophenyl)-3-(4-(6-oxo-1,6-dihydropyridazin-3-yl)phenyl)urea] |  | 0.5 to 1 (≈ 1.33 to 2.67 µM) |  |  | 0.5 to 1 (≈ 1.33 to 2.67 µM) |  |  | 
6 | CC(=O)NC[C@H]1CN(c2ccc(N3CCOCC3)c(F)c2)C(=O)O1 [Linezolid, reference compound] |  |  | > 64 | 8 (≈ 23.7 µM) |  |  |  | 
7 | CNC(=O)c1cc(Oc2ccc(NC(=O)Nc3ccc(Cl)c(C(F)(F)F)c3)cc2)ccn1 [Sorafenib, reference compound] |  |  | > 128 | 1 (≈ 2.15 µM) |  |  | > 128 | 1 (≈ 2.15 µM)
